Columns and labels:
[1] = system: Daphnia magna; assay: Effect of free porphyrin on non-target organisms of aqueous habitats; format: in vivo; conditions: 1 h irradiation, fluorescent lamp
Description: (§1) The effect of free porphyrin, wherein porphyrin means porphyrin C12, dissolved in water on the photosensitivity of potential aqueous non-target organisms was evaluated on Colpoda inflata, Artemia franciscana and Daphnia magna, a protozoan and two crustacean organisms frequently found in aqueous environments. The mortality data were recorded after 1 h irradiation with visible light emitted by a fluorescent lamp.

[2] = system: Colpoda inflata; assay: as above; format: in vivo; conditions: 1 h irradiation, fluorescent lamp
Description: as §1

[3] = system: Artemia franciscana; assay: as above; format: in vivo; conditions: 1 h irradiation, fluorescent lamp
Description: as §1

[4] = system: Tetrahymena thermophila; conditions: in vivo
Description: (§2) The dark- and photo-toxic activity of free C12 (wherein C12 means porphyrin C12) was tested on representative components of mosquito's breeding sites biota, the results are shown in table 6, as minimal photosensitizing dose (μM). […] Sensitivity to phototreatment (visible light, 10 mW/cm^2) was obviously different, as C. inflate trophozoites and even cysts were highly photosensitive, while Artemia franciscana nauplii appeared to be highly resistant.

[5] = system: Daphnia magna; assay: Dark- and photo-toxic activity of free C12 on breeding site biota; format: in vivo; conditions: young individuals; 1 h incubation; visible light 10 mW/cm^2
Description: as §2

[6] = system: Chlamydomonas reinhardtii; assay: as above; format: in vivo; conditions: vegetative cells; 1 h incubation; visible light 10 mW/cm^2
Description: as §2

[7] = system: Artemia franciscana; assay: as above; format: in vivo; conditions: nauplii; 1 h incubation; visible light 10 mW/cm^2
Description: as §2

[8] = system: An. gambiae (M); assay: Laboratory-scale tray larvicide test; format: in vivo; conditions: sun
Description: (§3) Laboratory strains of Anopheles stephensi, M and S (Kisumu), chromosomal forms of An. gambiae, An. arabiensis and Aedes aegypti, as well as field-collected Anopheles spp. and Aedes spp. larvae were used. Laboratory mosquitoes were maintained at 28-30° C., >90% RH and a photoperiod of 12 h. Light intensity ranged between 0.5 mW/cm^2 (fluorescent lamp) and 185 mW/cm^2 (sunlight).
(§4) C12 or C14 porphyrin solutions at 5-100 μM concentrations were pre-incubated at room temperature in the darkness with 15-60 mg of carrier (either Eudragit or ground mouse food or cat food) for 4-12 hours under gentle shaking. After incubation the solutions were filtered, and the loaded carrier was dried at room temperature or in an oven (45° C.).
(§5) One litre capacity, transparent plastic trays containing wells with each 500 ml water and 6-60 mg of the composition of the present invention were prepared. Batches of 60-100 L2, L3 or L4 larvae were introduced into the trays after sunset (or artificial light off). Larval mortality was evaluated the next day starting from 8.00 am, and the time required to reach at least 90% mortality was recorded. Larvae not moving or not showing an escaping response at probing were defined as dead or dying, and counted together (Tables 2 and 3). Pupae occasionally formed throughout the irradiation time were discarded and excluded from the evaluation. An equal number of batches of larvae prepared in the same way were kept in continuous darkness and mortality was evaluated similarly, to assess toxicity in the dark.
(§6) Light intensity range: 0.5-185 mW/cm^2.

[9] = system: Anopheles gambiae Kisumu strain (S); assay: Laboratory-scale tray larvicide test; format: in vivo; conditions: sun
Description: as §3, §4, §5, §6

[10] = system: An. arabiensis; assay: Laboratory-scale tray larvicide test; format: in vivo; conditions: sun
Description: as §3, §4, §5, §6

[11] = system: An. stephensi; assay: Laboratory-scale tray larvicide test; format: in vivo; conditions: carrier mouse food; 6 mg per tray; loading concentration 0.64 μM; fluorescent lamp
Description: as §3, §4, §5, §6

[12] = C12 photo-bleaching in water; format: physicochemical; conditions: free porphyrin in water; 1 hour irradiation, visible light 150 mW/cm^2
Description: Moreover, with the aim to determine the level of degradation of the free porphyrin in the water after exposure to sunlight, the rate of C12 photo-bleaching was followed spectrophotometrically by measuring the porphyrin absorption spectrum in the 350-700 nm range upon exposure to visible light at a fluence rate of 150 mW/cm^2. After 1 hour irradiation the porphyrin concentration decreased up to 50%.

[13] = system: Anopheles spp; assay: Tray larvicide test on field-collected mosquitoes; format: in vivo; conditions: sunlight
Description: as §3, §4, §5
(§7) Each result derives from an independent, representative experiment. Light source: sunlight in all cases, intensity range: 4-185 mW/cm^2

[14] = system: Anopheles spp + Aedes spp; assay: Tray larvicide test on field-collected mosquitoes; format: in vivo; conditions: carrier Eudragit; 30 mg per tray; loading concentration 50 μM; sunlight
Description: as §3, §4, §5, §7

[15] = system: Culex sp.; conditions: cited from earlier work
[16] = carrier Eudragit, 15 mg per tray, loading concentration 25 μM
[17] = carrier cat food, 30 mg per tray, loading concentration 50 μM
[18] = carrier Eudragit, 30 mg per tray, loading concentration 25 μM
[19] = carrier Eudragit, 30 mg per tray, loading concentration 50 μM

For `CCCCCCCCCCCC[n+]1ccc(-c2c3nc(c(-c4cc[n+](C)cc4)c4ccc([nH]4)c(-c4cc[n+](C)cc4)c4nc(c(-c5cc[n+](C)cc5)c5ccc2[nH]5)C=C4)C=C3)cc1` [C12, meso-tri(N-methyl-pyridyl), mono(N-dodecyl-pyridyl)porphine], the LD-50 [1] was 0.3 µM, the “Mortality (%)” value ([1]; porphyrin dose 0.3 μM) was 50% and the LD-50 ([2]; cysts) was over 1.0 µM. For the same compound, the “Mortality (%)” value ([2]; cysts, porphyrin dose 1.0 μM) was 20%, the LD-50 ([2]; trophozoites) was 1.0 µM and the “Mortality (%)” value ([2]; trophozoites, porphyrin dose 0.6 μM) was 40%. The LD-50 [3] was over 10.0 µM, the “Mortality (%)” value ([3]; porphyrin dose 6.0 μM) was 20% and the minimal photosensitizing dose [4] was 3.0 µM. It also gave a minimal photosensitizing dose [5] of 0.3 µM, a minimal photosensitizing dose [6] of 0.2 µM and a minimal photosensitizing dose [7] of over 10.0 µM. The “Time to reach ≧90% mortality” value [8, 16] was 0.5 h, the “Time to reach ≧90% mortality” value [8, 17] was 3 h and the “Time to reach ≧90% mortality” value [9, 16] was 0.5 h. The “Time to reach ≧90% mortality” value ([9]; carrier Eudragit, 15 mg per tray, loading concentration 50 μM) was 0.5 h, the “Time to reach ≧90% mortality” value [9, 18] was 0.5 h and the “Time to reach ≧90% mortality” value [9, 19] was 0.5 h. For the same compound, the “Time to reach ≧90% mortality” value ([9]; carrier Eudragit, 60 mg per tray, loading concentration 50 μM) was 0.5 h, the “Time to reach ≧90% mortality” value ([9]; carrier cat food, 30 mg per tray, loading concentration 25 μM) was 8 h and the “Time to reach ≧90% mortality” value [9, 17] was 0.5 h. The “Time to reach ≧90% mortality” value ([9]; carrier cat food, 30 mg per tray, loading concentration 100 μM) was 0.5 h, the “Time to reach ≧90% mortality” value ([9]; carrier cat food, 60 mg per tray, loading concentration 100 μM) was 0.5 h and the “Time to reach ≧90% mortality” value ([10]; carrier Eudragit, 15 mg per tray, loading concentration 5 μM) was 3 h. The “Time to reach ≧90% mortality” value [10, 19] was 0.5 h, the “Time to reach ≧90% mortality” value [10, 17] was 3 h and the “Time to reach ≧90% mortality” value [11] was 6 h. The “decrease of porphyrin concentration (photo-bleaching)” value [12] was “up to 50%”, the “Time to reach ≧90% mortality” value ([13]; carrier Eudragit, 15 mg per tray, loading concentration 15 μM) was 3 h and the “Time to reach ≧90% mortality” value [13, 18] was 0.5 h. For the same compound, the “Time to reach ≧90% mortality” value [13, 17] was 3 h and the “Time to reach ≧90% mortality” value [14] was 0.5 h.
In the case of `CC1=C(CCC(=O)O)c2cc3[nH]c(cc4nc(cc5[nH]c(cc1n2)c(C)c5C(C)O)C(C)=C4C(C)O)c(C)c3CCC(=O)O` (stereo not shown) [hematoporphyrin], the mortality ([15]; semi-field, 10^−5 M, after 3 days under natural sunlight) is given as 100%.
In the case of chlorophyllin, the LD50 ([15]; laboratory, added to larval breeding water, after 3 h exposure to light intensity 146.66 W/m^2) is listed as 6.88 g/L.
